Data as given in publication PMC11756644 (ACS chemical biology, 2015).

Molecular target: T1, tPAD1 (Saccharomyces cerevisiae, UniProt P33751)
T1 sequence (P33751 55-242): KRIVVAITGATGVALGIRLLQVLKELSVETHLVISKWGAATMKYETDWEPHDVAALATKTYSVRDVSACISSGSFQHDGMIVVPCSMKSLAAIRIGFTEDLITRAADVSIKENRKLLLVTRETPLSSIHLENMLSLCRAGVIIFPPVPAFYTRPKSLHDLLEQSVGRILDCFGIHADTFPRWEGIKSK
Test: UV-visible spectrum of purified protein
Type: binding
Details: co-purified from E. coli; oxidized FMN

SMILES: Cc1cc2nc3c(=O)[nH]c(=O)nc-3n(C[C@H](O)[C@H](O)[C@H](O)COP(=O)(O)O)c2cc1C [FMN]
- UV-visible spectrum of purified protein; LC-ESI-MS of released flavin: The presence of FMN was confirmed by LC-ESI-MS. FMN was released from tPAD1 by precipitation
